IC50 data for 21 molecules are collected here from patent US11247990B1, “Bicyclic fused pyridine compounds as inhibitors of TAM kinases” (ARRAY BIOPHARMA INC., priority 2017, dated 2022).

Molecules are shown by their SMILES.

What all share (settings): averaged IC50
Assay [1] addresses GST-tagged recombinant human TYRO3 kinase domain (Homo sapiens (Human), UniProt Q06418). Description: TYRO3 Enzyme Assay (LanthaScreen Eu Kinase Binding, TR-FRET). In short, it runs like this: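 LanthaScreen Eu binding (tracer displacement) format read by TR-FRET after 60 min at 22 °C. Emission ratio converted to percent of control; IC50 taken where a 4-parameter logistic fit crosses 50 POC.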
(TR-FRET usually uses a lanthanide donor and a delayed reading to cut background.)

In assay [2] the target is His-tagged recombinant human AXL cytoplasmic domain (Homo sapiens (Human), UniProt P30530). Kind of assay: AXL Enzyme Assay (LanthaScreen Eu Kinase Binding, TR-FRET). The protocol:
Compounds of Formula I were screened for their ability to inhibit AXL kinase using Invitrogen's LanthaScreen™ Eu Kinase Binding technology. […] After a 60-minute incubation at 22° C., the reaction was measured using a PerkinElmer EnVision multimode plate reader via TR-FRET dual wavelength detection, and the percent of control (POC) was calculated using a ratiometric emission factor. […] The POC values are fit to a 4 parameter logistic curve and the IC50 value is point where the curve crosses 50 POC.

The target of assay [3] is His-tagged recombinant human MER cytoplasmic domain (Homo sapiens (Human), UniProt Q12866). Kind of assay: MER Enzyme Assay (LanthaScreen Eu Kinase Binding, TR-FRET). In short, it runs like this:
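Percent of control, derived from ratiometric TR-FRET emission, was fitted to a 4-parameter logistic curve and IC50 taken at 50 POC. Binding was read after 60 min at 22 °C using Eu-based LanthaScreen technology and recombinant His-tagged MER cytoplasmic domain.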

Sequence of His-tagged recombinant human MER cytoplasmic domain (Q12866 527-999): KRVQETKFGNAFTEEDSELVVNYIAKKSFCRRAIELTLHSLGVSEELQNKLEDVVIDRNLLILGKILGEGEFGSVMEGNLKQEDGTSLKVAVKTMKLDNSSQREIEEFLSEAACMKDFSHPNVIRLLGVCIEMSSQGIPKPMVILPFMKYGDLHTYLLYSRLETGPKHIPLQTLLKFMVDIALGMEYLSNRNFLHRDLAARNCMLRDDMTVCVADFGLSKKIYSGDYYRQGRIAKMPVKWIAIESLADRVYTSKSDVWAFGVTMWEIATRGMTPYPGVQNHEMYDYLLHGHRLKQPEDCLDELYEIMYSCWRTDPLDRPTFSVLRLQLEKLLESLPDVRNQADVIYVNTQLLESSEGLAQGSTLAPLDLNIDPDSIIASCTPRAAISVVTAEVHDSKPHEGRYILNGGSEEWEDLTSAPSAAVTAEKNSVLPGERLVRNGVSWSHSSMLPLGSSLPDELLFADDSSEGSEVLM
Sequence of His-tagged recombinant human AXL cytoplasmic domain (P30530 473-894): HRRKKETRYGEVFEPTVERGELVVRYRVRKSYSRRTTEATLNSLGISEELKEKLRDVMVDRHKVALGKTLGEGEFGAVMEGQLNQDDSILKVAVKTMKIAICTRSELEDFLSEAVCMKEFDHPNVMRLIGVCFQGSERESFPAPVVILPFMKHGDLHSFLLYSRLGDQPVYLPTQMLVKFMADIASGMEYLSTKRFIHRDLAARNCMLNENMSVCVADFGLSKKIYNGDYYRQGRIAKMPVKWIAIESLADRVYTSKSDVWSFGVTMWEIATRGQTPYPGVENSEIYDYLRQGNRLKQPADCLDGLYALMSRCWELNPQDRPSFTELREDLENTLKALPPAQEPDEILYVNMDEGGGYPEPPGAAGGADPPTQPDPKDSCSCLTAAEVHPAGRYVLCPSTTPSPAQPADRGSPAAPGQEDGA
Sequence of GST-tagged recombinant human TYRO3 kinase domain (Q06418 518-790): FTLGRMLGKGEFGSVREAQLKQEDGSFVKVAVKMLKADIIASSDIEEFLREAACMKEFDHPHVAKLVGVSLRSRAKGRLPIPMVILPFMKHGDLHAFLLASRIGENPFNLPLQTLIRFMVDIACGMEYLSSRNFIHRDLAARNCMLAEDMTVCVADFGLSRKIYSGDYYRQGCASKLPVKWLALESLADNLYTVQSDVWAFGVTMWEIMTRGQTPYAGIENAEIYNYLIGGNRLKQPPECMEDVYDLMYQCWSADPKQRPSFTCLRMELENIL

As to `CNc1cc2c(cn1)c(-c1cnn(C(CO)CO)c1)nn2[C@H]1CC[C@@H](Oc2cccnc2C(F)(F)F)CC1` [Example 210, 2-(4-(6-(methylamino)-1-((1 s,4s)-4-((2-(trifluoromethyl)pyridin-3-yl)oxy)cyclohexyl)-1H-pyrazolo[4,3-c]pyridin-3-yl)-1H-pyrazol-1-yl)propane-1,3-diol], the IC50 in assay [1], in assay [2] and in assay [3] was less than 10 nM each time.
Consider `CCNc1cc2c(cn1)c(-c1cnn(C[C@@H](O)CO)c1)nn2[C@H]1CC[C@@H](Oc2cccnc2C(F)(F)F)CC1` [Example 209, ®-3-(4-(6-(ethylamino)-1-((1s,4R)-4-((2-(trifluoromethyl)pyridin-3-yl)oxy)cyclohexyl)-1H-pyrazolo[4,3-c]pyridin-3-yl)-1H-pyrazol-1-yl)propane-1,2-diol], for which the IC50 in assay [1], in assay [2] and in assay [3] was less than 10 nM throughout.
As to `CCNc1cc2c(cn1)c(C1CCN(C(=O)C(C)C)CC1)nn2[C@H]1CC[C@@H](Oc2nccc(C(F)(F)F)c2F)CC1` [Example 329, 1-(4-(6-(ethylamino)-1-((1s,4s)-4-((3-fluoro-4-(trifluoromethyl)pyridin-2-yl)oxy)cyclohexyl)-1H-pyrazolo[4,3-c]pyridin-3-yl)piperidin-1-yl)-2-methylpropan-1-one], the values for the IC50 in assay [1], in assay [2] and in assay [3] were 10 to 100 nM, less than 10 nM and less than 10 nM, respectively.
`CCNc1cc2c(cn1)c(-c1cnn(C[C@@H](O)CO)c1)nn2[C@H]1CC[C@@H](Oc2ccc(F)cc2F)CC1` [Example 423, (R)-3-(4-(1-((1s,4S)-4-(2,4-difluorophenoxy)cyclohexyl)-6-(ethylamino)-1H-pyrazolo[4,3-c]pyridin-3-yl)-1H-pyrazol-1-yl)propane-1,2-diol]: the IC50 – broadly, the concentration at which inhibition is half-maximal – is 10 to 100 nM in assay [1], less than 10 nM in assay [2] and less than 10 nM in assay [3].
`CCNc1cc2c(cn1)c(-c1cnn(C[C@H](O)C(C)(C)O)c1)nn2[C@H]1CC[C@@H](Oc2ccccc2F)CC1` [Example 440, (S)-1-(4-(6-(ethylamino)-1-((1s,4R)-4-(2-fluorophenoxy)cyclohexyl)-1H-pyrazolo[4,3-c]pyridin-3-yl)-1H-pyrazol-1-yl)-3-methylbutane-2,3-dioI]: the IC50 is 10 to 100 nM in assay [1], less than 10 nM in assay [2] and less than 10 nM in assay [3].
Turning to `CCNc1cc2c(cn1)c(N1CC[C@@H](O)C1)nn2[C@H]1CC[C@@H](Oc2nccc(C(F)(F)F)c2F)CC1` [Example 488, (R)-1-(6-(ethylamino)-1-((1s,4S)-4-((3-fluoro-4-(trifluoromethyl)pyridin-2-yl)oxy)cyclohexyl)-1H-pyrazolo[4,3-c]pyridin-3-yl)pyrrolidin-3-ol], the results for the IC50 in assay [1], in assay [2] and in assay [3] were 10 to 100 nM, less than 10 nM and less than 10 nM, respectively.
For `CCNc1cc2c(cn1)c(N1CC[C@H](N)C1)nn2[C@H]1CC[C@@H](Oc2nccc(C(F)(F)F)c2F)CC1` [Example 493, 3-((S)-3-aminopyrrolidin-1-yl)-N-ethyl-1-((1s,4R)-4-((3-fluoro-4-(trifluoromethyl)pyridin-2-yl)oxy)cyclohexyl)-1H-pyrazolo[4,3-c]pyridin-6-amine], the IC50 is 10 to 100 nM in assay [1], less than 10 nM in assay [2] and less than 10 nM in assay [3].
Consider `CCNc1cc2c(cn1)c(-c1cnn(C)c1)nn2[C@H]1CC[C@@H](Oc2nccc(C(F)(F)F)c2N(C)C)CC1` [Example 350, 1-((1s,4s)-4-((3-(dimethylamino)-4-(trifluoromethyl)pyridin-2-yl)oxy)cyclohexyl)-N-ethyl-3-(1-methyl-1H-pyrazol-4-yl)-1H-pyrazolo[4,3-c]pyridin-6-amine], for which the IC50 in assay [1] was 10 to 100 nM; in assay [2], less than 10 nM; in assay [3], less than 10 nM.
Regarding `CNc1cc2c(cn1)c(-c1cnn(C(C)(C)C#N)c1)nn2[C@H]1CC[C@@H](Oc2cccnc2C)CC1` [Example 202, 2-methyl-2-(4-(6-(methylamino)-1-((1s,4s)-4-((2-methylpyridin-3-yl)oxy)cyclohexyl)-1H-pyrazolo[4,3-c]pyridin-3-yl)-1H-pyrazol-1-yl)propanenitrile], the IC50 in assay [2] and in assay [3] was less than 10 nM throughout.
As to `CNc1cc2c(cn1)c(-c1ccc3c(c1)CNC3=O)nn2[C@H]1CC[C@@H](Oc2cnn(C)c2C(F)(F)F)CC1` [Example 266, 5-(1-((1s,4s)-4-((1-methyl-5-(trifluoromethyl)-1H-pyrazol-4-yl)oxy)cyclohexyl)-6-(methylamino)-1H-pyrazolo[4,3-c]pyridin-3-yl)isoindolin-1-one], the IC50 in assay [2] and in assay [3] was less than 10 nM in each case.
Consider `CCNc1cc2c(cn1)c(-c1cnn(CC(=O)N(C)C)c1)nn2[C@H]1CC[C@@H](Oc2nccc(C(F)(F)F)c2F)CC1` [Example 259, 2-(4-(6-(ethylamino)-1-((1s,4s)-4-((3-fluoro-4-(trifluoromethyl)pyridin-2-yl)oxy)cyclohexyl)-1H-pyrazolo[4,3-c]pyridin-3-yl)-1H-pyrazol-1-yl)-N,N-dimethylacetamide], for which the IC50 in assay [2] and in assay [3] was less than 10 nM throughout.
Turning to `CNc1cc2c(cn1)c(-c1cnn(C)c1)nn2[C@H]1CC[C@@H](Oc2nccnc2C)CC1` [Example 150, N-methyl-3-(1-methyl-1H-pyrazol-4-yl)-1-((1s,4s)-4-((3-methylpyrazin-2-yl)oxy)cyclohexyl)-1H-pyrazolo[4,3-c]pyridin-6-amine], the IC50 in assay [2] and in assay [3] was less than 10 nM throughout.
In the case of `CCNc1cc2c(cn1)c(-c1ccc3c(c1)CN(C)S3(=O)=O)nn2[C@H]1CC[C@@H](Oc2cnn(C)c2C(F)(F)F)CC1` [Example 224, 5-(6-(ethylamino)-1-((1s,4s)-4-((1-methyl-5-(trifluoromethyl)-1H-pyrazol-4-yl)oxy)cyclohexyl)-1H-pyrazolo[4,3-c]pyridin-3-yl)-2-methyl-2,3-dihydrobenzo[d]isothiazole 1,1-dioxide], the IC50 in assay [1] and in assay [2] was 1000 to 10000 nM each time.
As to `CNc1cc2c(cn1)c(-c1cnn(C)c1)nn2[C@H]1CC[C@@H](Oc2cccc(F)c2)CC1` [Example 354, 1-((1s,4s)-4-(3-fluorophenoxy)cyclohexyl)-N-methyl-3-(1-methyl-1H-pyrazol-4-yl)-1H-pyrazolo[4,3-c]pyridin-6-amine], the IC50 in assay [2] and in assay [3] was less than 10 nM each time.
As for `CCNc1cc2c(cn1)c(N1CC[C@H](OC)C1)nn2[C@H]1CC[C@@H](Oc2nccc(C(F)(F)F)c2F)CC1` [Example 332, N-ethyl-1-((1s,4R)-4-((3-fluoro-4-(trifluoromethyl)pyridin-2-yl)oxy)cyclohexyl)-3-((S)-3-methoxypyrrolidin-1-yl)-1H-pyrazolo[4,3-c]pyridin-6-amine], the IC50 in assay [2] and in assay [3] was less than 10 nM in each case.
As to `CCNc1cc2c(cn1)c(-c1cnn(C)c1)nn2[C@H]1CC[C@@H](Oc2cccn(C)c2=O)CC1` [Example 109, 3-(((1s,4s)-4-(6-(ethylamino)-3-(1-methyl-1H-pyrazol-4-yl)-1H-pyrazolo[4,3-c]pyridin-1-yl)cyclohexyl)oxy)-1-methylpyridin-2(1H)-one], the IC50 in assay [1] and in assay [2] was 1000 to 10000 nM each time.
`CCNc1cc2c(cn1)c(-c1ccn(CCN3CCOCC3)n1)nn2[C@H]1CC[C@@H](Oc2ccc(=O)n(C)n2)CC1` [Example 101, 6-(((1s,4s)-4-(6-(ethylamino)-3-(1-(2-morpholinoethyl)-1H-pyrazol-3-yl)-1H-pyrazolo[4,3-c]pyridin-1-yl)cyclohexyl)oxy)-2-methylpyridazin-3(2H)-one]: the IC50 in assay [1] and in assay [2] was 1000 to 10000 nM throughout.
As to `CNc1cc2c(cn1)c(-c1cnn(C)c1)nn2[C@H]1CC[C@@H](Oc2ncccc2C(F)(F)F)CC1` [Example 125, N-methyl-3-(1-methyl-1H-pyrazol-4-yl)-1-((1s,4s)-4-((3-(trifluoromethyl)pyridin-2-yl)oxy)cyclohexyl)-1H-pyrazolo[4,3-c]pyridin-6-amine], the IC50 in assay [2] and in assay [3] was less than 10 nM each time.
In the case of `CNc1cc2c(cn1)c(-c1cnn(C(C)(C)CO)c1)nn2[C@H]1CC[C@@H](Oc2nccnc2C)CC1` [Example 213, 2-methyl-2-(4-(6-(methylamino)-1-((1s,4s)-4-((3-methylpyrazin-2-yl)oxy)cyclohexyl)-1H-pyrazolo[4,3-c]pyridin-3-yl)-1H-pyrazol-1-yl)propan-1-ol], the IC50 in assay [2] and in assay [3] was less than 10 nM in each case.
As for `CCNc1cc2c(cn1)c(-c1cnc(C)nc1)nn2[C@H]1CC[C@@H](Oc2nccc(C(F)(F)F)c2F)CC1` [Example 268, N-ethyl-1-((1s,4s)-4-((3-fluoro-4-(trifluoromethyl)pyridin-2-yl)oxy)cyclohexyl)-3-(2-methylpyrimidin-5-yl)-1H-pyrazolo[4,3-c]pyridin-6-amine], the IC50 in assay [2] and in assay [3] was less than 10 nM throughout.
For the molecule `CNc1cc2c(cn1)c(-c1cnn(C)c1)nn2[C@H]1CC[C@@H](Oc2ccc(F)cc2F)CC1` [Example 358, 1-((1s,4s)-4-(2,4-difluorophenoxy)cyclohexyl)-N-methyl-3-(1-methyl-1H-pyrazol-4-yl)-1H-pyrazolo[4,3-c]pyridin-6-amine], the IC50 in assay [2] and in assay [3] was less than 10 nM each time.
